Results reported in patent US8198469B2, “Crystalline forms of tigecycline and processes for preparation thereof” (Teva Pharmaceutical Industries Ltd., priority 2006, dated 2012).
Blank lines part the entries; values can stand above or below the compound they belong to.

Assays:
Type in all cases: physicochemical
[1] = Polymorphic transition due to heating in oven, solid analyzed by XRD
Description: (§1) X-Ray powder diffraction data were obtained by using methods known in the art, using a SCINTAG powder X-Ray diffractometer model X'TRA equipped with a solid-state detector. A Copper radiation of 1.5418 Å was used. A round aluminum sample holder with zero background was used. The scanning parameters included: range: 20 to 40° 2θ; scan mode: continuous scan; step size: 0.05°. The rate for Form XX [FIG. 16] was 3°/min using spin mode while the remaining crystalline forms were 5°/min using spin mode. All peak positions are within ±0.2 degrees two theta.
Tigecycline Form X was placed in oven at a temperature of between about 50-150° C. for about 0.5-2 hr (for example: 60 for 2 hr, 140° C. for 1 hr).
Tigecycline Form XI was placed in oven at a temperature of between about 50-80° C. for about 1-2 hr (for example: 60 for 2 hr).
Tigecycline Form XVII was placed in oven at a temperature of between about 50-70° C. for about 1-2 hr (for example: 60 for 2 hr).
Tigecycline Form XVII was placed in oven at a temperature of between about 90-110° C. for about 0.5-1 hr (for example: 100 for 0.5 hr).
Tigecycline Form XVIII was placed in oven at a temperature of between about 120-150° C. for about 0.5-1 hr (for example: 140 for 1 hr).
Tigecycline Form XXIV was placed in oven at a temperature of between about 110-140° C. for about 0.5-1 hr (for example: 120 for 0.5 hr, 140° C. for 1 hr).

[2] = Exposure to 0% or 100% relative humidity for 7 days at room temperature, crystal form monitored by XRD
Description: as §1, with “theta. […]” for “theta.”
Form I prepared from ethyl acetate (about 80 mg) as described in U.S. Application Ser. No. 60/796,800 was exposed to either 0% or 100% relative humidity for 7 days at room temperature. After the exposure the crystal form was monitored by XRD. […]

[3] = Vacuum drying of the solid, form re-analyzed by XRD; conditions: for Solid form after vacuum drying: dried under vacuum, temperature and time not stated; for Solid form by XRD after drying: overnight at 40° C. under vacuum
Description: as §1
Tigecycline sample was dissolved in 20 volumes of hot iso-propanol. The solution thus obtained was allowed to cool at ambient temperature and then further cooled at 0-5° C. for about half an hour. The resulted suspension was filtered and the solid air-dried on the filter to afford Tigecycline of Form XII. The material was further dried overnight at 40° C. under vacuum without affecting the polymorphs, i.e. the vacuum dried Tigecycline was still identified as Form XII. The sizes of the Tigecycline Form XII crystals were less than 300 μm.
Tigecycline sample was dissolved in 20 volumes of n-propanol or 40 volumes of hot ethanol. The solution thus obtained was allowed to cool at ambient temperature and then further cooled at 0-5° C. for about half an hour. The resulted suspension was filtered and the solid air-dried on the filter to afford Tigecycline Form XIII. The material was further dried overnight under vacuum at 40° C. without affecting the polymorphs, i.e. the vacuum dried Tigecycline was still identified as Form XIII. The sizes of the Tigecycline Form XIII crystals were less than 300 μm.
2 grams of Tigecycline was dissolved in 440 mL of DDW and pH of the mixture was adjusted at 7.38 and 60 mL of THF were then added. The resulted solution was extracted 6 times with 60 mL portions of dichloromethane while pH is carefully controlled at 7.2-7.4. The combined organic extract was then dried over sodium sulfate and concentrated to about 10 mL to afford a suspension of Tigecycline. The solid was filtered and washed with heptane. Analysis of the material indicated Form XVII Tigecycline.
2 grams of Tigecycline was dissolved in 440 mL of DDW and pH of the mixture was adjusted at 7.33 and 60 mL of THF were then added. The resulted solution was extracted 6 times with 60 mL portions of dichloromethane while the pH is carefully controlled at 7.2-7.4. The combined organic extract was then dried over sodium sulfate, filtered and the solid was washed with 50 mL of dichloromethane into the initial filtrate. The combined filtrate was concentrated to 30-40 mL and the concentrated was stirred for about half an hour at 0-5° C. A precipitation occurred upon the cooling and the solid was collected and vacuum dried. Analysis of the material before and after the drying indicated Form XVIII of Tigecycline in both cases.
A solution of Tigecycline in dichloromethane was provided between 5 and 10 g/L, and dried over sodium sulfate. Toluene was added to the solution so that the total volume increased to about 1.15 of the original volume. The resulted solution was then partially evaporated so that the volume of the residual mixture was similar to that of the toluene added. The resulted suspension was filtered and the solid thus obtained was dried under vacuum. Analysis of the material before and after the drying indicated Form XIX of Tigecycline in both cases.
A solution of Tigecycline in dichloromethane was provided and dried over sodium sulfate. Di-n-butyl ether was added to the solution so that the total volume increased to about 1.15 of the original volume. The resulting solution was then partially evaporated so that the volume of the residual mixture was similar to that of the di-n-butyl ether added. The resulted suspension was filtered and the cake washed with di-n-butyl ether. Tigecycline thus obtained was identified as Form VIII in both wet and vacuum dried samples. […]

[4] = Pressing by a laboratory press, solid analyzed by XRD; conditions: pressure of about 1-2 tons for about 1-3 min (e.g. 2 tons for 1 min)
Description: as §1
Tigecycline Form XI was pressed by a laboratory press by pressure of about 1-2 tons for about 1-3 min (for example: 2 tons for 1 min).
Tigecycline Form XVII was pressed by a laboratory press by pressure of about 1-2 tons for about 1-3 min (for example: 2 tons for 1 min).

[5] = Strong grinding by mortar and pestle, solid analyzed by XRD; conditions: about 0.5-1 min
Description: as §1
Tigecycline Form XVII was strongly ground by mortal and pestle for about 0.5-1 min.

[6] = 120-150° C. for about 0.5-1 hr (e.g. 140° C. for 1 hr)

Solid form by XRD after drying [3]: Form XII
Structure (SMILES): CN(C)c1cc(NC(=O)CNC(C)(C)C)c(O)c2c1C[C@H]1C[C@H]3[C@H](N(C)C)C(O)=C(C(N)=O)C(=O)[C@@]3(O)C(O)=C1C2=O [Form XII, Tigecycline]

Solid form by XRD after drying [3]: Form XIII
Structure (SMILES): CN(C)c1cc(NC(=O)CNC(C)(C)C)c(O)c2c1C[C@H]1C[C@H]3[C@H](N(C)C)C(O)=C(C(N)=O)C(=O)[C@@]3(O)C(O)=C1C2=O [Form XIII, Tigecycline]

Solid form after vacuum drying [3]: Form XIX
Structure (SMILES): CN(C)c1cc(NC(=O)CNC(C)(C)C)c(O)c2c1C[C@H]1C[C@H]3[C@H](N(C)C)C(O)=C(C(N)=O)C(=O)[C@@]3(O)C(O)=C1C2=O [Form XIX, Tigecycline]

Solid form by XRD after heating in oven ([1]; 50-70° C. for about 1-2 hr (e.g. 60 for 2 hr)): mixture of Form XVII and Form VI
Solid form by XRD after heating in oven ([1]; 90-110° C. for about 0.5-1 hr (e.g. 100 for 0.5 hr)): Form VI
Solid form by XRD after pressing [4]: mixture of Form XVII and Form VI
Solid form by XRD after strong grinding [5]: mixture of Form XVII and Form VI
Solid form after vacuum drying [3]: Form XVII
Structure (SMILES): CN(C)c1cc(NC(=O)CNC(C)(C)C)c(O)c2c1C[C@H]1C[C@H]3[C@H](N(C)C)C(O)=C(C(N)=O)C(=O)[C@@]3(O)C(O)=C1C2=O [Form XVII, Tigecycline]

Solid form by XRD after heating in oven [1, 6]: amorphous form
Solid form after vacuum drying [3]: Form XVIII
Structure (SMILES): CN(C)c1cc(NC(=O)CNC(C)(C)C)c(O)c2c1C[C@H]1C[C@H]3[C@H](N(C)C)C(O)=C(C(N)=O)C(=O)[C@@]3(O)C(O)=C1C2=O [Form XVIII, Tigecycline]

Solid form by XRD after heating in oven ([1]; 110-140° C. for about 0.5-1 hr (e.g. 120 for 0.5 hr, 140° C. for 1 hr)): amorphous form
Structure (SMILES): CN(C)c1cc(NC(=O)CNC(C)(C)C)c(O)c2c1C[C@H]1C[C@H]3[C@H](N(C)C)C(O)=C(C(N)=O)C(=O)[C@@]3(O)C(O)=C1C2=O [Form XXIV, Tigecycline]

Solid form by XRD after drying [3]: amorphous
Structure (SMILES): CN(C)c1cc(NC(=O)CNC(C)(C)C)c(O)c2c1C[C@H]1C[C@H]3[C@H](N(C)C)C(O)=C(C(N)=O)C(=O)[C@@]3(O)C(O)=C1C2=O [amorphous Tigecycline, Tigecycline]

More lines, now with the values behind:

Structure (SMILES): CN(C)c1cc(NC(=O)CNC(C)(C)C)c(O)c2c1C[C@H]1C[C@H]3[C@H](N(C)C)C(O)=C(C(N)=O)C(=O)[C@@]3(O)C(O)=C1C2=O [Form I, Tigecycline]
Solid form by XRD after heating in oven [1, 6]: amorphous form
Crystal form by XRD after exposure to relative humidity ([2]; 0% RH): New form XXV
Crystal form by XRD after exposure to relative humidity ([2]; 100% RH): Amorphous

Structure (SMILES): CN(C)c1cc(NC(=O)CNC(C)(C)C)c(O)c2c1C[C@H]1C[C@H]3[C@H](N(C)C)C(O)=C(C(N)=O)C(=O)[C@@]3(O)C(O)=C1C2=O [Form IX, Tigecycline]
Crystal form by XRD after exposure to relative humidity ([2]; 100% RH): Form XXII

Structure (SMILES): CN(C)c1cc(NC(=O)CNC(C)(C)C)c(O)c2c1C[C@H]1C[C@H]3[C@H](N(C)C)C(O)=C(C(N)=O)C(=O)[C@@]3(O)C(O)=C1C2=O [Form VII, Tigecycline]
Crystal form by XRD after exposure to relative humidity ([2]; 0% RH): Form XXIII

Structure (SMILES): CN(C)c1cc(NC(=O)CNC(C)(C)C)c(O)c2c1C[C@H]1C[C@H]3[C@H](N(C)C)C(O)=C(C(N)=O)C(=O)[C@@]3(O)C(O)=C1C2=O [Form VIII, Tigecycline]
Solid form after vacuum drying [3]: Form VIII

Structure (SMILES): CN(C)c1cc(NC(=O)CNC(C)(C)C)c(O)c2c1C[C@H]1C[C@H]3[C@H](N(C)C)C(O)=C(C(N)=O)C(=O)[C@@]3(O)C(O)=C1C2=O [Form X, Tigecycline]
Solid form by XRD after heating in oven ([1]; 50-150° C. for about 0.5-2 hr (e.g. 60 for 2 hr, 140° C. for 1 hr)): amorphous form

Structure (SMILES): CN(C)c1cc(NC(=O)CNC(C)(C)C)c(O)c2c1C[C@H]1C[C@H]3[C@H](N(C)C)C(O)=C(C(N)=O)C(=O)[C@@]3(O)C(O)=C1C2=O [Form XI, Tigecycline]
Solid form by XRD after heating in oven ([1]; 50-80° C. for about 1-2 hr (e.g. 60 for 2 hr)): mixture of Form XI and Form VI
Crystal form by XRD after exposure to relative humidity ([2]; 0% RH): mixture of Form XI and Form VI
Solid form by XRD after pressing [4]: mixture of Form XI and Form VI
